pIC50: −log10 of the molar value.
Target: Beta-secretase 1 (Homo sapiens, UniProt P56817)
Assay: In Vitro BACE1 Activity Assay
Conditions: pH 4.5; 22 °C
Experimental: The assay was performed using a 96-well format on a HPLC equipped with four 96-well plate holders. Test compounds were preincubated with enzymes for 30min, followed by the addition of substrate. The solution was then incubated for an additional 30 min at room temperature. After the reaction was terminated, the solution was filtered, and the filtrate was subjected to HPLC analysis. The substrate and product were monitored by fluorescence detection (340nm excitation, 440 nm emission).

Sequence of Beta-secretase 1 (P56817 whole entry): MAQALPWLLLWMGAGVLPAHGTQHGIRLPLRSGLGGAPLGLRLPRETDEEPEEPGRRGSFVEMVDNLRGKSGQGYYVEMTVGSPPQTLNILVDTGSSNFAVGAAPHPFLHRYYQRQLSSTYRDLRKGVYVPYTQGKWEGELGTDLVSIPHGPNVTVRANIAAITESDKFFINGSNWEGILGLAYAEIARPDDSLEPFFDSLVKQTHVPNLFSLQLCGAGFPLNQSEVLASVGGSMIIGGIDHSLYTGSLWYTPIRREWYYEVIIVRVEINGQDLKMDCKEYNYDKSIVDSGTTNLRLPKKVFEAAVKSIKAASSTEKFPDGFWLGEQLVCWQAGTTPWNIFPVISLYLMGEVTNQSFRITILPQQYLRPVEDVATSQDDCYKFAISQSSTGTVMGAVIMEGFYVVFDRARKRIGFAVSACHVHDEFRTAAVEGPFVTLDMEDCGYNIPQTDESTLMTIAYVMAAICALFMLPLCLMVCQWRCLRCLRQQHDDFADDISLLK

pIC50: < 4.00
SMILES: C[C@H](NC(=O)c1cc(OCC(=O)NCCCCCN)cc(OS(=O)(=O)Cc2ccccc2)c1)c1ccccc1 [3-{[(5-aminopentyl)carbamoyl]methoxy}-5-{[(1S)-1-phenylethyl]carbamoyl}phenyl 1-phenylmethanesulfonate]
